Data: the supplement of paper PMC8671470

What was measured:
Assay in all cases: cell viability (% survival relative to DMSO control, bortezomib = 0%); higher = less cytotoxic
Conditions in all cases: 72 h
BV-173 = system: BV-173
Outline: (§1)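 Fifteen myeloid leukaemia cell lines were exposed to compounds at 1, 10, 100, 1000 or 10000 nM in 384-well plates for 72 h at 37 °C and 5% CO2. Viability was read by CellTiter-Glo luminescence and normalised, with vehicle as 100% and a 10 µM positive control as 0%. Values are percent survival averaged over duplicates.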

KU-812 = system: KU-812
Outline: as §1

Mono-Mac-6 = system: Mono-Mac-6
Outline: as §1

SHI-1 = system: SHI-1
Outline: as §1

SMILES	cell viability (BV-173; 1 nM) [%]	cell viability (BV-173; 10 nM) [%]	cell viability (BV-173; 100 nM) [%]	cell viability (BV-173; 1000 nM) [%]	cell viability (BV-173; 10000 nM) [%]	cell viability (KU-812; 1 nM) [%]	cell viability (KU-812; 10 nM) [%]	cell viability (KU-812; 100 nM) [%]	cell viability (KU-812; 1000 nM) [%]	cell viability (KU-812; 10000 nM) [%]	cell viability (Mono-Mac-6; 1 nM) [%]	cell viability (Mono-Mac-6; 10 nM) [%]	cell viability (Mono-Mac-6; 100 nM) [%]	cell viability (Mono-Mac-6; 1000 nM) [%]	cell viability (Mono-Mac-6; 10000 nM) [%]	cell viability (SHI-1; 1 nM) [%]	cell viability (SHI-1; 10 nM) [%]	cell viability (SHI-1; 100 nM) [%]	cell viability (SHI-1; 1000 nM) [%]	cell viability (SHI-1; 10000 nM) [%]
Nc1ncnc2c1ncn2[C@@H]1O[C@H](CSCC[C@H](N)C(=O)O)[C@@H](O)[C@H]1O [S-Adenosyl Homocysteine]	98.5	83.9	99.1	104	104	90.8	96.9	99.2	104	105	96.7	101	96.9	104	93.7	100	122	111	105	99.9
C[C@]12O[C@H](C[C@]1(O)CO)n1c3ccccc3c3c4c(c5c6ccccc6n2c5c31)CNC4=O [Lestaurtinib]	93.9	65.2	28.2	22.5	-0.238	96	89.8	39.4	43.1	6	83.4	54.1	4.06	0.62	0.201	107	97.9	37.1	19.5	0.00197
O=C(O)CCc1ccc(NCc2cccc(Oc3ccccc3)c2)cc1 [GW9508]	92.9	112	97.1	124	135	89.2	92.4	101	98.8	99.3	101	104	108	110	104	102	99.4	120	97.8	107
CC(/C=C1\SC(=S)N(CC(=O)O)C1=O)=C\c1ccccc1 [Epalrestat]	101	95.1	96.7	106	112	101	91.6	94.9	95.4	111	106	103	103	93.9	116	120	100	106	93.5	113
C[C@H]1O[C@@H](O[C@H]2[C@@H](O)C[C@H](O[C@H]3[C@@H](O)C[C@H](O[C@H]4CC[C@@]5(C)[C@H](CC[C@@H]6[C@@H]5C[C@@H](O)[C@]5(C)[C@@H](C7=CC(=O)OC7)CC[C@]65O)C4)O[C@@H]3C)O[C@@H]2C)C[C@H](O)[C@@H]1O [Digoxin]	92.3	106	3.24	-0.0612	-0.063	92.2	113	30.5	4.45	4.24	94.6	100	13	-0.503	-0.351	115	94.9	17.8	0.649	0.63
OCCN1CCN(CCCN2c3ccccc3Sc3ccc(Cl)cc32)CC1 [Perphenazine]	127	97.3	89.9	117	23.2	93.8	93.5	103	98	30	97.2	106	102	100	54.6	100	110	97.1	123	55.2
